Measurements reported in patent publication US20110021565A1, “PIPERIDINE DERIVATIVES AS NK3 ANTAGONISTS” (priority 2007, published 2011).
Where two headings read alike, the source gives them in different places.

Target: T1, recombinant human NK3 receptor (Homo sapiens, UniProt P29371)
T1 construct: expressed in transfected cells; host or cells: HEK293 cells, transient expression; membrane preparation
T1 sequence (P29371 1-465): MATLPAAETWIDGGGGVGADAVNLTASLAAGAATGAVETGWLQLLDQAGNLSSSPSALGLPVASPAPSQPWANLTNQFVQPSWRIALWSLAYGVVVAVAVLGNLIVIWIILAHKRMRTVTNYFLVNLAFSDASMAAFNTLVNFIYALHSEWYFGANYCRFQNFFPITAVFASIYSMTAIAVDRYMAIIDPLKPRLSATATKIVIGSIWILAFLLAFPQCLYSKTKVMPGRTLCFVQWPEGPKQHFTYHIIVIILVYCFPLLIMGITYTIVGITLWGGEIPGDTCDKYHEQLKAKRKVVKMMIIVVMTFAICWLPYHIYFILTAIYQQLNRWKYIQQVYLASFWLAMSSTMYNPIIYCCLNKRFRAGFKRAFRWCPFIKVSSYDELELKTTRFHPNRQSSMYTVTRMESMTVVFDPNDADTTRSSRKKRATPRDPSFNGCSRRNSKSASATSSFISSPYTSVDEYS
Experiment: [3H]SR142801 competition binding assay
Method in brief: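 Ki derived by Cheng-Prusoff from Hill-fitted IC50 curves, duplicates, 10 μM SB222200 defining nonspecific binding. Radioligand used at KD concentration against compound at 0.0003-10 μM; transiently transfected HEK293 membranes, 5 μg/well, 75 min room temperature, Tris-HCl/MnCl2/phosphoramidon/BSA pH 7.4. Filter-bound counts read by scintillation.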

[1] = [3H]SR142801, membranes of HEK293 cells transiently expressing recombinant human NK3 receptor, read-out: hNK3 Ki
[2] = representative compounds, [3H]SR142801, HEK293 membranes, human NK3 receptor, read-out: Ki NK3 h

Row | SMILES | Ki [1] [nM] | Ki [2] [nM]
1 | CCN(C1CCN(CCC(C)(C(=O)N(C)Cc2ccc(Cl)c(Cl)c2)c2ccc(Cl)c(Cl)c2)CC1)S(C)(=O)=O (stereo not drawn) [Example 70, N-(3,4-Dichloro-benzyl)-2-(3,4-dichloro-phenyl)-4-[4-(ethyl-methanesulfonyl-amino)-piperidin-1-yl]-2,N-dimethyl-butyramide] | 1.2 | 1.2
2 | CCN(C1CCN(CCC(C)(C(=O)NCc2ccc(Cl)c(Cl)c2)c2ccc(Cl)c(Cl)c2)CC1)S(C)(=O)=O (stereo not drawn) [Example 71, N-(3,4-Dichloro-benzyl)-2-(3,4-dichloro-phenyl)-4-[4-(ethyl-methanesulfonyl-amino)-piperidin-1-yl]-2-methyl-butyramide] | 2.8 | 2.8
3 | CCN(C1CCN(CCC(C)(C(=O)N(C)Cc2ccc(Cl)cc2)c2ccc(Cl)c(Cl)c2)CC1)S(C)(=O)=O (stereo not drawn) [Example 72, N-(4-Chloro-benzyl)-2-(3,4-dichloro-phenyl)-4-[4-(ethyl-methanesulfonyl-amino)-piperidin-1-yl]-2,N-dimethyl-butyramide] | 2.2 | 2.2
4 | CCN(C1CCN(CCC(C)(C(=O)N(C)Cc2ccc(Cl)c(C(F)(F)F)c2)c2ccc(Cl)c(Cl)c2)CC1)S(C)(=O)=O (stereo not drawn) [Example 73, N-(4-Chloro-3-trifluoromethyl-benzyl)-2-(3,4-dichloro-phenyl)-4-[4-(ethyl-methanesulfonyl-amino)-piperidin-1-yl]-2,N-dimethyl-butyramide] | 1.5 | 1.5
5 | CCN(C1CCN(CCC(C)(C(=O)N(C)Cc2cccc(Cl)c2)c2ccc(Cl)c(Cl)c2)CC1)S(C)(=O)=O (stereo not drawn) [Example 75, N-(3-Chloro-benzyl)-2-(3,4-dichloro-phenyl)-4-[4-(ethyl-methanesulfonyl-amino)-piperidin-1-yl]-2,N-dimethyl-butyramide] | 3.9 | 3.9
6 | CCN(C1CCN(CCC(C)(C(=O)N(C)Cc2ccc(C)cc2)c2ccc(Cl)c(Cl)c2)CC1)S(C)(=O)=O (stereo not drawn) [Example 77, 2-(3,4-Dichloro-phenyl)-4-[4-(ethyl-methanesulfonyl-amino)-piperidin-1-yl]-2,N-dimethyl-N-(4-methyl-benzyl)-butyramide] | 3.1 | 3.1
7 | CN(Cc1ccc(C(F)(F)F)c(F)c1)C(=O)C(C)(CCN1CCC(N2CCCC2=O)CC1)c1ccc(Cl)c(Cl)c1 (stereo not drawn) [Example 81, 2-(3,4-Dichloro-phenyl)-N-(3-fluoro-4-trifluoromethyl-benzyl)-2,N-dimethyl-4-[4-(2-oxo-pyrrolidin-1-yl)-piperidin-1-yl]-butyramide] | 3 | 3
8 | CN(Cc1ccc(Cl)c(Cl)c1)C(=O)C(C)(CCN1CCC(N2CCCC2=O)CC1)c1ccc(Cl)c(Cl)c1 (stereo not drawn) [Example 82, N-(3,4-Dichloro-benzyl)-2-(3,4-dichloro-phenyl)-2,N-dimethyl-4-[4-(2-oxo-pyrrolidin-1-yl)-piperidin-1-yl]-butyramide] | 1.2 | 1.2
9 | CC(CCN1CCC(N2CCCC2=O)CC1)(C(=O)NCc1ccc(Cl)c(Cl)c1)c1ccc(Cl)c(Cl)c1 (stereo not drawn) [Example 83, N-(3,4-Dichloro-benzyl)-2-(3,4-dichloro-phenyl)-2-methyl-4-[4-(2-oxo-pyrrolidin-1-yl)-piperidin-1-yl]-butyramide] | 2.3 | 2.3
10 | CN(Cc1ccc(Cl)c(C(F)(F)F)c1)C(=O)C(C)(CCN1CCC(N2CCCC2=O)CC1)c1ccc(Cl)c(Cl)c1 (stereo not drawn) [Example 85, N-(4-Chloro-3-trifluoromethyl-benzyl)-2-(3,4-dichloro-phenyl)-2,N-dimethyl-4-[4-(2-oxo-pyrrolidin-1-yl)-piperidin-1-yl]-butyramide] | 1.4 | 1.4
11 | CN(Cc1ccc(F)c(C(F)(F)F)c1)C(=O)C(C)(CCN1CCC(N2CCCC2=O)CC1)c1ccc(Cl)c(Cl)c1 (stereo not drawn) [Example 86, 2-(3,4-Dichlorophenyl)-N-(4-fluoro-3-trifluoromethyl-benzyl)-2,N-dimethyl-4-[4-(2-oxo-pyrrolidin-1-yl)-piperidin-1-yl]-butyramide] | 1.4 | 1.4
12 | CN(Cc1ccccc1Cl)C(=O)C(C)(CCN1CCC(N2CCCC2=O)CC1)c1ccc(Cl)c(Cl)c1 (stereo not drawn) [Example 90, N-(2-Chloro-benzyl)-2-(3,4-dichloro-phenyl)-2,N-dimethyl-4-[4-(2-oxo-pyrrolidin-1-yl)-piperidin-1-yl]-butyramide] | 2.5 | 2.5

The next lines start with the values.

Row | Ki [1] [nM] | Ki [2] [nM] | SMILES
13 | 84.3 |  | CN(Cc1ccc(C(F)(F)F)cc1)C(=O)C(F)(CCN1CCC(NS(C)(=O)=O)CC1)c1ccc(Cl)c(Cl)c1 (stereo not drawn) [Example 66, 2-(3,4-Dichloro-phenyl)-2-fluoro-4-(4-methanesulfonyl-amino-piperidin-1-yl)-N-methyl-N-(4-trifluoromethyl-benzyl)-butyramide]
14 | 323 |  | Cc1ccc(CN(C)C(=O)C(F)(CCN2CCC(NS(C)(=O)=O)CC2)c2ccc(Cl)c(Cl)c2)cc1 (stereo not drawn) [Example 67, 2-(3,4-Dichloro-phenyl)-2-fluoro-4-(4-methanesulfonyl-amino-piperidin-1-yl)-N-methyl-N-(4-methyl-benzyl)-butyramide]
15 | 159 |  | CN(Cc1ccccc1Cl)C(=O)C(F)(CCN1CCC(NS(C)(=O)=O)CC1)c1ccc(Cl)c(Cl)c1 (stereo not drawn) [Example 68, N-(2-Chloro-benzyl)-2-(3,4-dichloro-phenyl)-2-fluoro-4-(4-methanesulfonyl-amino-piperidin-1-yl)-N-methyl-butyramide]
16 | 2.4 | 2.4 | CCN(C1CCN(CCC(C)(C(=O)N(C)Cc2ccc(C(F)(F)F)c(F)c2)c2ccc(Cl)c(Cl)c2)CC1)S(C)(=O)=O (stereo not drawn) [Example 69, 2-(3,4-Dichloro-phenyl)-4-[4-(ethyl-methanesulfonyl-amino)-piperidin-1-yl]-N-(3-fluoro-4-trifluoromethyl-benzyl)-2,N-dimethyl-butyramide]
17 | 1.3 | 1.3 | CCN(C1CCN(CCC(C)(C(=O)N(C)Cc2ccc(F)c(C(F)(F)F)c2)c2ccc(Cl)c(Cl)c2)CC1)S(C)(=O)=O (stereo not drawn) [Example 74, 2-(3,4-Dichloro-phenyl)-4-[4-(ethyl-methanesulfonyl-amino)-piperidin-1-yl]-N-(4-fluoro-3-trifluoromethyl-benzyl)-2,N-dimethyl-butyramide]
18 | 1.7 | 1.7 | CCN(C1CCN(CCC(C)(C(=O)N(C)Cc2ccc(C(F)(F)F)cc2)c2ccc(Cl)c(Cl)c2)CC1)S(C)(=O)=O (stereo not drawn) [Example 76, 2-(3,4-Dichloro-phenyl)-4-[4-(ethyl-methanesulfonyl-amino)-piperidin-1-yl]-2,N-dimethyl-N-(4-trifluoromethyl-benzyl)-butyramide]
19 | 3.6 | 3.6 | CCN(C1CCN(CCC(C)(C(=O)N(C)Cc2ccccc2Cl)c2ccc(Cl)c(Cl)c2)CC1)S(C)(=O)=O (stereo not drawn) [Example 78, N-(2-Chloro-benzyl)-2-(3,4-dichloro-phenyl)-4-[4-(ethyl-methanesulfonyl-amino)-piperidin-1-yl]-2,N-dimethyl-butyramide]
20 | 2.1 | 2.1 | CN(Cc1ccc(Cl)cc1)C(=O)C(C)(CCN1CCC(N2CCCC2=O)CC1)c1ccc(Cl)c(Cl)c1 (stereo not drawn) [Example 84, N-(4-Chloro-benzyl)-2-(3,4-dichloro-phenyl)-2,N-dimethyl-4-[4-(2-oxo-pyrrolidin 1-yl)-piperidin-1-yl]-butyramide]
21 | 4.6 | 4.6 | CN(Cc1cccc(Cl)c1)C(=O)C(C)(CCN1CCC(N2CCCC2=O)CC1)c1ccc(Cl)c(Cl)c1 (stereo not drawn) [Example 87, N-(3-Chloro-benzyl)-2-(3,4-dichloro-phenyl)-2,N-dimethyl-4-[4-(2-oxo-pyrrolidin-1-yl)-piperidin-1-yl]-butyramide]
22 | 1.8 | 1.8 | CN(Cc1ccc(C(F)(F)F)cc1)C(=O)C(C)(CCN1CCC(N2CCCC2=O)CC1)c1ccc(Cl)c(Cl)c1 (stereo not drawn) [Example 88, 2-(3,4-Dichloro-phenyl)-2,N-dimethyl-4-[4-(2-oxo-pyrrolidin-1-yl)-piperidin-1-yl]-N-(4-trifluoromethyl-benzyl)-butyramide]
23 | 5.3 | 5.3 | Cc1ccc(CN(C)C(=O)C(C)(CCN2CCC(N3CCCC3=O)CC2)c2ccc(Cl)c(Cl)c2)cc1 (stereo not drawn) [Example 89, 2-(3,4-Dichloro-phenyl)-2,N-dimethyl-N-(4-methyl-benzyl)-4-[4-(2-oxo-pyrrolidin-1-yl)-piperidin-1-yl]-butyramide]
24 | 51.2 |  | CC(NC(=O)C(C)(CCN1CCC(N2CCCC2=O)CC1)c1ccc(Cl)c(Cl)c1)c1ccccc1 (stereo not drawn) [Example 91, 2-(3,4-Dichloro-phenyl)-2-methyl-4-[4-(2-oxo-pyrrolidin-1-yl)-piperidin-1-yl]-N-(1-phenyl-ethyl)-butyramide]
25 | 991 |  | CC(C)(NC(=O)C(C)(CCN1CCC(N2CCCC2=O)CC1)c1ccc(Cl)c(Cl)c1)c1ccccc1 (stereo not drawn) [Example 92, 2-(3,4-Dichloro-phenyl)-2-methyl-N-(1-methyl-1-phenyl-ethyl)-4-[4-(2-oxo-pyrrolidin-1-yl)-piperidin-1-yl]-butyramide]
